Source: paper PMC3711795 (Nature, 2012)

What was measured:
[1] = molecular target: T1, HSC / FNT3 (hydrosulfide ion channel) (Clostridioides difficile, UniProt Q186B7); settings: 450 µM 14C-formate; pH 8.0; competing permeant anion, competitive
T1 sequence (Q186B7 2-258): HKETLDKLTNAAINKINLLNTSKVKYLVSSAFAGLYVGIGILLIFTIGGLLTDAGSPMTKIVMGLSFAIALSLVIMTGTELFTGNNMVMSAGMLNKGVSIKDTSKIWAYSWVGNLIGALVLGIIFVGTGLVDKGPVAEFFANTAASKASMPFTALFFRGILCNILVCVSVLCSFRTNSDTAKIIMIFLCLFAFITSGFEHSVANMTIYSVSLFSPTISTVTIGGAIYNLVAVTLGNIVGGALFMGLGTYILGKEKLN

[2] = molecular target: hydrosulfide ion channel (HSC) from Clostridium difficile (Clostridium difficile strain 630); test: crystal structure

Molecule	% inhibition at 15 mM [1]	stoichiometry N [2]
O=NO [nitrite]	70%	–
hydrosulfide ion channel (HSC) from Clostridium difficile (natural protein)	–	5
S [HS^−]	90%	–
